Test results taken from PMC8419995, “In vitro and in vivo efficacy of thiacloprid against Echinococcus multilocularis” (Parasites & Vectors, 2021).

Legend:
[1] = system: E. multilocularis metacestodes; test: PGI assay (phosphoglucose isomerase release) on metacestode vesicles; format: cell-based, Echinococcus multilocularis
Procedure: The efficacy of thiacloprid against the E. multilocularis metacestode was evaluated by applying a phosphoglucose isomerase (PGI) assay that measures the release of the enzyme phosphoglucose isomerase upon physical impairment of metacestodes. In brief, medium without phenol red (DMEM, 1% penicillin/streptomycin sulfate, 2 mM L-glutamine) was added to the same volume of vesicles and distributed to 48-well (12–15 per vesicles) plates. Subsequently, metacestodes were incubated for 5 days with different concentrations (0, 0.06, 1.2, 2.5, 5, 10, 20, 40, 80 and 160 μM) of thiacloprid or praziquantel (PZQ), after which PGI release was quantified exactly as described in Stadelmann et al.. Triton X-100 (0.1% in PBS) was applied as a positive control (maximal release of vesicle fluid). Each condition was tested in biological triplicate. After 5 days of incubation, 200 μl medium supernatant was collected from each well and stored at − 20 °C until further measurements were performed. PGI measurements were performed as described earlier, except that an Infinite M200 PRO reader (Tecan, Männedorf, Switzerland) was used to measure the increase in absorbance at 340 nm. PGI activity was calculated using the EC50 calculator (https://www.aatbio.com/tools/ec50-calculator) from the linear regression of the enzyme reaction over time and presented as a percentage relative to the values obtained by treatment of vesicles with 0.1% Triton X-100.

[2] = Toxicity of thiacloprid in vivo (serum biochemistry, blood cells, histopathology); conditions: normal BALB/c mice, 6 weeks; for Alanine aminotransferase / Albumin / Alkaline phosphatase / Aspartate aminotransferase / Blood urea nitrogen / Creatinine / Direct bilirubin / Globulin / Indirect bilirubin / Total bilirubin / Total protein: serum; for Hemoglobin / PLT / RBC / WBC: whole blood
Procedure: Based on the previous thiacloprid dose concentration, we selected 15 mg/kg and 30 mg/kg thiacloprid concentrations to evaluate the toxicity in vivo [35]. The toxicity of thiacloprid was assessed in normal BALB/c mice. Normal mice were randomly divided into three groups and received the following treatments (6 animals per group): The control group was not administered any drug; the Thia15 group and Thia30 group received thiacloprid orally (15 mg/kg/day and 30 mg/kg/day). After 6 weeks of treatment, blood samples were collected from the orbital sinus of mice under anesthesia before euthanasia, which were preserved in EDTA-K2 anticoagulant tubes for white blood cell (WBC), hemoglobin (Hb) and platelet (PLT) analysis. For assessing biochemical indicators, blood samples were incubated in anticoagulant-free tubes at 37 °C for 1 h, followed by 3500 rpm centrifugation for 10 min. The isolated serum samples were used to detect relative levels of alanine aminotransferase (ALT), aspartate aminotransferase (AST), total bilirubin (TBIL), direct bilirubin (DBIL), indirect bilirubin (IBIL), total protein (TP), albumin (ALB), alkaline phosphatase (ALP), creatinine (CREA) and blood urea nitrogen (BUN). Subsequently, mice were sacrificed for harvesting the liver and kidneys, which were fixed in 4% paraformaldehyde, prepared for hematoxylin–eosin (HE) staining and observed under a Zeiss Vert.A1 microscope.
(§1) Tissues from experimental animals were washed in PBS and fixed in 4% paraformaldehyde at room temperature for […]. On the next day, they were dehydrated, embedded, and sliced into 5-μm sections. After dewaxing and dehydrating, sections were stained with hematoxylin for 2–5 min, and re-stained with eosin for 15 s. They were sealed with neutral gum and observed under a BX51 microscope (Olympus, Tokyo, Japan).

[3] = system: E. multilocularis metacestodes; test: In vivo treatment of mice experimentally infected with E. multilocularis metacestodes; parameters: species or system Echinococcus multilocularis; conditions: for Wet weight of the metacestodes: infected BALB/c mice, untreated 6.49 ± 1.18 g
Procedure: In vitro-grown metacestode vesicles were pressed through a 500 µm mesh and washed three times with sterile PBS. The parasite tissue was then taken up in an equal volume of sterile PBS. Each mouse was intraperitoneally injected with 200 μl suspension. Seven mice were injected with 200 μl PBS as the control group. Twenty-eight infected mice were randomly distributed into four groups (7 mice/group): the untreated group was not administered any drug; the ABZ group was treated with ABZ orally (100 mg/kg/day); and the Thia15 group and Thia30 group received thiacloprid orally (15 mg/kg/day and 30 mg/kg/day). Treatments of mice started 2 weeks post-infection, and treatments were administered daily for 6 weeks. After 6 weeks of treatment, whole blood via the orbital sinus was collected from mice and the animals were euthanized by CO2. Blood samples were incubated at 37 °C for 1 h and centrifuged at 3500 rpm for 10 min at 4 °C. The serum was harvested and stored at –20 °C for IL-2, IL-4, IL-10 and IgE detection. All metacestode tissues were collected, and the total wet weight of metacestodes per mice was determined. Furthermore, the content of cytokines in microcyst fluid was detected by enzyme-linked immunosorbent assay (ELISA). Several metacestode tissue specimens were processed for transmission electron microscopy (TEM) and histopathological experiments.
as §1
A Periodic Acid Schiff Stain Kit (Solarbio, Beijing, China) was used to show the PAS-positive laminated layer characteristic of E. multilocularis metacestodes. The section (5 μm) was dewaxed in xylene and rehydrated in 100%, 95%, 80%, and 75% alcohol baths. Staining was then carried out according to the kit instructions.

[4] = parameters: method as in PMID 32229153; conditions: mice; cited from earlier work

For `N#C/N=C1\SCCN1Cc1ccc(Cl)nc1` [thiacloprid], which “Activity in PGI assay screening” value ([1]; 20 μM, 5 days and 12 days, active if exceeding 20% relative PGI release) is on record?
Its value is “showed activity”.

And the EC50 ([1]; Echinococcus multilocularis, 120 h, read-out: EC50 against E. multilocularis metacestode by the PGI assay)?
The EC50 was 4.54 ± 1.1 µM.

What about the Alanine aminotransferase ([2]; 15 mg/kg/day orally) of the same molecule?
Its Alanine aminotransferase is 66.00 ± 5.33 U/L.

And the Albumin ([2]; 15 mg/kg/day orally)?
The Albumin was 28.95 ± 2.35 g/L.

And the Alkaline phosphatase ([2]; 15 mg/kg/day orally)?
Its Alkaline phosphatase is 57.67 ± 5.43 U/L.

And the Aspartate aminotransferase ([2]; 15 mg/kg/day orally)?
Its Aspartate aminotransferase is 164.70 ± 36.71 U/L.

What about the Blood urea nitrogen ([2]; 15 mg/kg/day orally) of the same molecule?
Its Blood urea nitrogen is 7.23 ± 1.87 mmol/L.

What about the Creatinine ([2]; 15 mg/kg/day orally) of the same molecule?
The Creatinine was 16.08 ± 1.87 μM/L.

And the Direct bilirubin ([2]; 15 mg/kg/day orally)?
The Direct bilirubin was 0.13 ± 0.05 μM/L.

What about the Globulin ([2]; 15 mg/kg/day orally) of the same molecule?
Its Globulin is 36.67 ± 4.71 g/L.

And the Indirect bilirubin ([2]; 15 mg/kg/day orally)?
Its Indirect bilirubin is 0.44 ± 0.17 μM/L.

What about the Total bilirubin ([2]; 15 mg/kg/day orally) of the same molecule?
Its Total bilirubin is 0.60 ± 0.10 μM/L.

What about the Total protein ([2]; 15 mg/kg/day orally) of the same molecule?
The Total protein was 65.90 ± 4.76 g/L.

And the Hemoglobin ([2]; 15 mg/kg/day orally)?
The Hemoglobin was 203.00 ± 11.15 g/L.

And the PLT ([2]; 15 mg/kg/day orally)?
Its PLT is 613.70 ± 145.00 10^9/L.

And the RBC ([2]; 15 mg/kg/day orally)?
The RBC was 11.39 ± 1.48 10^12/L.

What about the WBC ([2]; 15 mg/kg/day orally) of the same molecule?
Its WBC is 11.69 ± 1.30 10^9/L.

What about the Alanine aminotransferase ([2]; 30 mg/kg/day orally) of the same molecule?
Its Alanine aminotransferase is 67.50 ± 5.01 U/L.

And the Albumin ([2]; 30 mg/kg/day orally)?
The Albumin was 29.72 ± 1.49 g/L.

And the Alkaline phosphatase ([2]; 30 mg/kg/day orally)?
Its Alkaline phosphatase is 58.50 ± 7.82 U/L.

What about the Aspartate aminotransferase ([2]; 30 mg/kg/day orally) of the same molecule?
Its Aspartate aminotransferase is 180.50 ± 45.71 U/L.

And the Blood urea nitrogen ([2]; 30 mg/kg/day orally)?
The Blood urea nitrogen was 7.15 ± 0.47 mmol/L.

And the Creatinine ([2]; 30 mg/kg/day orally)?
Its Creatinine is 15.18 ± 2.44 μM/L.

And the Direct bilirubin ([2]; 30 mg/kg/day orally)?
The Direct bilirubin was 0.19 ± 0.16 μM/L.

And the Globulin ([2]; 30 mg/kg/day orally)?
The Globulin was 37.77 ± 4.81 g/L.

What about the Indirect bilirubin ([2]; 30 mg/kg/day orally) of the same molecule?
Its Indirect bilirubin is 0.42 ± 0.19 μM/L.

What about the Total bilirubin ([2]; 30 mg/kg/day orally) of the same molecule?
Its Total bilirubin is 0.59 ± 0.16 μM/L.

What about the Total protein ([2]; 30 mg/kg/day orally) of the same molecule?
Its Total protein is 65.82 ± 4.39 g/L.

What about the Hemoglobin ([2]; 30 mg/kg/day orally) of the same molecule?
The Hemoglobin was 206.0 ± 9.93 g/L.

And the PLT ([2]; 30 mg/kg/day orally)?
Its PLT is 670.80 ± 150.20 10^9/L.

And the RBC ([2]; 30 mg/kg/day orally)?
The RBC was 9.58 ± 0.82 10^12/L.

What about the WBC ([2]; 30 mg/kg/day orally) of the same molecule?
Its WBC is 12.72 ± 1.75 10^9/L.

And the “Histopathological examination of liver and kidneys (HE staining)” value ([2]; 15 and 30 mg/kg/day orally)?
Its value is “did not show obvious histopathological changes or injury”.

What about the “PAS staining of laminated layer of metacestodes from treated mice” value ([3]; 6 weeks oral treatment) of the same molecule?
Its value is “only a few laminated layers were observed”.

And the “HE staining of metacestodes from treated mice” value ([3]; 6 weeks oral treatment, thiacloprid 15 or 30 mg/kg/day, ABZ 100 mg/kg/day)?
Its value is “Considerable vacuoles”.

And the “Wet weight of the metacestodes” value ([3]; thiacloprid 15 mg/kg/day orally, 6 weeks (Thia15 group))?
Its value is 1.63 ± 0.62 g.

And the “Wet weight of the metacestodes” value ([3]; thiacloprid 30 mg/kg/day orally, 6 weeks (Thia30 group))?
The value was 1.63 ± 0.61 g.

What about the “Dose that induced obvious hepatocellular hypertrophy and cytoplasm degeneration” value [4] of the same molecule?
Its value is “more than 108 mg/kg”.
